Converted amounts (≈) assume the structure as drawn. Like-named read-outs stand apart in the source and are kept apart here. One block for each compound: values may come before it.
Assays:
Assay in all cases: microbe, parasite or virus in culture
Set-up in all cases: species or system Enterobacteriaceae strains
[1] = test system: P. stuartii NDM-1; details: Providencia stuartii, NDM1, read-out: MIC
[2] = test system: K. pneumoniae IMP-1; details: Klebsiella pneumoniae, IMP1, read-out: MIC
[3] = test system: E. coli NDM-1; details: Escherichia coli, NDM1, read-out: MIC
[4] = test system: E. coli VIM-1; details: Escherichia coli, VIM1, read-out: MIC
[5] = test system: K. pneumoniae ATCC BAA 1706; details: Klebsiella pneumoniae, BAA1706, read-out: MIC
[6] = test system: K. pneumoniae IMP-8; details: Klebsiella pneumoniae, IMP8, read-out: MIC
[7] = test system: K. pneumoniae VIM-1; details: Klebsiella pneumoniae, VIM1, read-out: MIC
[8] = test system: E. coli NDM-4; details: Escherichia coli, NDM4, read-out: MIC
[9] = test system: C. freundii NDM-1; details: Citrobacter freundii, NDM1, read-out: MIC
[10] = test system: P. rettgeri NDM-1; details: Providencia rettgeri, NDM1, read-out: MIC
[11] = test system: E. coli VIM-2; details: Escherichia coli, VIM2, read-out: MIC
[12] = test system: K. pneumoniae OXA-48; details: Klebsiella pneumoniae, OXA48, read-out: MIC
[13] = test system: E. cloacae IMP-1; details: Enterobacter cloacae, IMP1, read-out: MIC
[14] = test system: E. coli ATCC 25922; details: Escherichia coli, ATCC25922, read-out: MIC
[15] = test system: E. cloacae IMP-8; details: Enterobacter cloacae, IMP8, read-out: MIC
[16] = test system: E. cloacae NDM-1; details: Enterobacter cloacae, NDM1, read-out: MIC
[17] = test system: E. cloacae VIM-1; details: Enterobacter cloacae, VIM1, read-out: MIC
[18] = test system: E. coli IMP-1; details: Escherichia coli, IMP1, read-out: MIC
[19] = test system: P. stuartii NDM-1; details: Providencia stuartii, NDM1, read-out: MIC; remark: listed apart in the source
[20] = test system: E. cloacae IMP-1; details: Enterobacter cloacae, IMP1, read-out: MIC; remark: listed apart in the source
[21] = test system: C. freundii NDM-1; details: Citrobacter freundii, NDM1, read-out: MIC; remark: listed apart in the source
[22] = test system: E. cloacae NDM-1; details: Enterobacter cloacae, NDM1, read-out: MIC; remark: listed apart in the source
[23] = test system: K. pneumoniae IMP-1; details: Klebsiella pneumoniae, IMP1, read-out: MIC; remark: listed apart in the source
[24] = test system: E. cloacae VIM-1; details: Enterobacter cloacae, VIM1, read-out: MIC; remark: listed apart in the source
[25] = test system: K. pneumoniae OXA-48; details: Klebsiella pneumoniae, OXA48, read-out: MIC; remark: listed apart in the source
[26] = test system: E. coli IMP-1; details: Escherichia coli, IMP1, read-out: MIC; remark: listed apart in the source
[27] = test system: E. coli VIM-2; details: Escherichia coli, VIM2, read-out: MIC; remark: listed apart in the source
[28] = test system: K. pneumoniae VIM-1; details: Klebsiella pneumoniae, VIM1, read-out: MIC; remark: listed apart in the source
[29] = test system: K. pneumoniae IMP-8; details: Klebsiella pneumoniae, IMP8, read-out: MIC; remark: listed apart in the source
[30] = test system: P. rettgeri NDM-1; details: Providencia rettgeri, NDM1, read-out: MIC; remark: listed apart in the source
[31] = test system: E. coli NDM-1; details: Escherichia coli, NDM1, read-out: MIC; remark: listed apart in the source
[32] = test system: E. coli ATCC 25922; details: Escherichia coli, ATCC25922, read-out: MIC; remark: listed apart in the source
[33] = test system: E. coli VIM-1; details: Escherichia coli, VIM1, read-out: MIC; remark: listed apart in the source
[34] = test system: E. coli NDM-4; details: Escherichia coli, NDM4, read-out: MIC; remark: listed apart in the source
[35] = test system: K. pneumoniae ATCC BAA 1706; details: Klebsiella pneumoniae, BAA1706, read-out: MIC; remark: listed apart in the source
[36] = test system: E. cloacae IMP-8; details: Enterobacter cloacae, IMP8, read-out: MIC; remark: listed apart in the source

MIC [1]: 16 mg/L (≈ 41.7 µM) | MIC [2]: 32 mg/L (≈ 83.4 µM) | MIC [3]: 128 mg/L (≈ 334 µM) | MIC [4]: 32 mg/L (≈ 83.4 µM) | MIC [5]: 0.5 mg/L (≈ 1.3 µM) | MIC [6]: 16 mg/L (≈ 41.7 µM) | MIC [7]: 32 mg/L (≈ 83.4 µM) | MIC [8]: 128 mg/L (≈ 334 µM) | MIC [9]: 8 mg/L (≈ 20.9 µM) | MIC [10]: 64 mg/L (≈ 167 µM) | MIC [11]: 8 mg/L (≈ 20.9 µM) | MIC [12]: 8 mg/L (≈ 20.9 µM) | MIC [13]: 32 mg/L (≈ 83.4 µM) | MIC [14]: 0.03 mg/L (≈ 0.0782 µM) | MIC [15]: 8 mg/L (≈ 20.9 µM) | MIC [16]: 16 mg/L (≈ 41.7 µM) | MIC [17]: 8 mg/L (≈ 20.9 µM) | MIC [18]: 16 mg/L (≈ 41.7 µM)
SMILES: C[C@@H](O)[C@H]1C(=O)N2C(C(=O)O)=C(S[C@@H]3CN[C@H](C(=O)N(C)C)C3)[C@H](C)[C@H]12 [MEM, meropenem]

MIC [19]: > 1020 mg/L | MIC [20]: 512 mg/L (≈ 3960 µM) | MIC [21]: 1020 mg/L (≈ 7930 µM) | MIC [22]: > 1020 mg/L | MIC [23]: 512 mg/L (≈ 3960 µM) | MIC [24]: 128 mg/L (≈ 991 µM) | MIC [25]: 128 mg/L (≈ 991 µM) | MIC [26]: 512 mg/L (≈ 3960 µM) | MIC [27]: 128 mg/L (≈ 991 µM) | MIC [28]: 512 mg/L (≈ 3960 µM) | MIC [29]: 1020 mg/L (≈ 7930 µM) | MIC [30]: > 1020 mg/L | MIC [31]: 1020 mg/L (≈ 7930 µM) | MIC [32]: 1020 mg/L (≈ 7930 µM) | MIC [33]: 1020 mg/L (≈ 7930 µM) | MIC [34]: 1020 mg/L (≈ 7930 µM) | MIC [35]: 1020 mg/L (≈ 7930 µM) | MIC [36]: 512 mg/L (≈ 3960 µM)
SMILES: C1CNCCNCCN1 [compound 1, 1,4,7-triazacyclononane]

From paper doi:10.1101/366146v2 (biorxiv, 2018)
